{"source": "patent US9656953B2", "about": "“Inhibition of cell proliferation” (University of South Florida, priority 2005, dated 2017)", "key": {"[1]": {"tested_on": "Human aortic endothelial cells (HAECs)", "assay": "Matrigel angiogenic tubule formation", "assay_type": "cell-based", "conditions": "20 μM", "protocol": "Matrigel assays. […] A total of 100 μl of thawed Matrigel was added to 96-well tissue culture plates, followed by incubation at 37° C. for 60 minutes to allow polymerization. […] Capillary tube formation assessed by using a Leica DMIL phase contrast microscope.\nAn experiment was performed to determine whether angiogenic tubule formation could be inhibited by the disclosed compounds."}, "[2]": {"molecular_target": "binding of Raf-1 to Rb in U937 cells (Homo sapiens, UniProt P04049+P06400)", "sequence (P06400 whole entry)": "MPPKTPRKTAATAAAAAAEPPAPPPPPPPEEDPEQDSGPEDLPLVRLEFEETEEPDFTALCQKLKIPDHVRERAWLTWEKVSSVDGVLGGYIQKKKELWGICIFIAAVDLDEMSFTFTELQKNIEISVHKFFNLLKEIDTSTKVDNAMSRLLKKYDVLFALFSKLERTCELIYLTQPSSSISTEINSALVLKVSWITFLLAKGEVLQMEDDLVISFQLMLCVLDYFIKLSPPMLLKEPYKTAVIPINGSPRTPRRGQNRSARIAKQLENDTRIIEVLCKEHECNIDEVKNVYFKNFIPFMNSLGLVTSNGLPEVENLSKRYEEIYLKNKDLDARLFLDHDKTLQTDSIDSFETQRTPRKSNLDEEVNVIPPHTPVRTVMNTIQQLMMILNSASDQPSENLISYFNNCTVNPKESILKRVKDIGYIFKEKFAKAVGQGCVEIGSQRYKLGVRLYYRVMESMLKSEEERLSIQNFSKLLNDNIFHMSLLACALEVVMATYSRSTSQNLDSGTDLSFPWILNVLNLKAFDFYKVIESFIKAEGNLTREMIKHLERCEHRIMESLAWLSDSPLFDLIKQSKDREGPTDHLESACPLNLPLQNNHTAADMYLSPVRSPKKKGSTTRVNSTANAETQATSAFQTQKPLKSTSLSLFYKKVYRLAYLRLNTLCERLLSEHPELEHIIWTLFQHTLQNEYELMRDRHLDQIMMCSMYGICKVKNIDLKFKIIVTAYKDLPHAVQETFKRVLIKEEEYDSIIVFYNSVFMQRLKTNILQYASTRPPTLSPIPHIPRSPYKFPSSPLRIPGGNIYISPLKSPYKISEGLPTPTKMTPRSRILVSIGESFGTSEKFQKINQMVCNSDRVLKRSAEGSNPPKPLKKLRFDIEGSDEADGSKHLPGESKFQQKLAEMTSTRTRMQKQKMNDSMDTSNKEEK", "sequence (P04049 whole entry)": "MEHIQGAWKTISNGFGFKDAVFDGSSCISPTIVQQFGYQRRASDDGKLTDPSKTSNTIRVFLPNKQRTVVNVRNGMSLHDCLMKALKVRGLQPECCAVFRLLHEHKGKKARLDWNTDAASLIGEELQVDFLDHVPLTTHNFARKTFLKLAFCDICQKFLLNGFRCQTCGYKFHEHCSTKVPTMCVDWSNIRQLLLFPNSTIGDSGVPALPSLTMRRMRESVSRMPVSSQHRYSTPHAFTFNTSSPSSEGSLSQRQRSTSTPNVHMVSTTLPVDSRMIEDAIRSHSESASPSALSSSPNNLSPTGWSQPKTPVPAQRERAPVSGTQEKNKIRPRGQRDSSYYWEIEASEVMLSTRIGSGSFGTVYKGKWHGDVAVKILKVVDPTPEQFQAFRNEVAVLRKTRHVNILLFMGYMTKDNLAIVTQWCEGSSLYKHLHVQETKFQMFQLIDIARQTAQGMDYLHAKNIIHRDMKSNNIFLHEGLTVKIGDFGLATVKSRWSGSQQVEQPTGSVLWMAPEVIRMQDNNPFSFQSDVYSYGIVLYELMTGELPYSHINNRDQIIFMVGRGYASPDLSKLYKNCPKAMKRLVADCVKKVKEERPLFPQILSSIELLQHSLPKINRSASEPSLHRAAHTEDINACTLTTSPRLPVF", "assay": "Immunoprecipitation-Western blot, serum stimulated U937 cells", "conditions": "U937 cells serum stimulated 2 hours, 20 μM", "experimental": "Lysate preparation, pmmunoprecipitation, and pestern plotting. Lysates from cells treated with different agents were prepared by NP-40 lysis as described earlier (Wang 1998). […] Physical interaction between proteins in vivo was analyzed by immunoprecipitation—Western blot analyses with 200 μg of lysate with 1 μg of the indicated antibody as previously described (Wang 1998). Polyclonal E2F1 and Cyclin D were obtained from Santa Cruz Biotechnology. Monoclonal Rb and Raf-1 were supplied by BD Transduction laboratories (San Jose, Calif.). Polyclonal antibodies to phospho-Rb (807,811) phospho-MEK1/2, MEK1/2, phospho-Erk1/2 and ERK1/2 were supplied by Cell Signaling (Danvers, Mass.).\nU937 cells were serum starved for 48 hours and subsequently serum stimulated for 2 hours in the presence or absence of 20 μM of the compounds."}, "Rb-E2F1": {"molecular_target": "T1, Rb-E2F1 (Homo sapiens, UniProt P06400+Q01094)", "T1 construct": "made in house", "T1 sequence (P06400 whole entry)": "as the sequence (P06400 whole entry) above", "T1 sequence (Q01094 whole entry)": "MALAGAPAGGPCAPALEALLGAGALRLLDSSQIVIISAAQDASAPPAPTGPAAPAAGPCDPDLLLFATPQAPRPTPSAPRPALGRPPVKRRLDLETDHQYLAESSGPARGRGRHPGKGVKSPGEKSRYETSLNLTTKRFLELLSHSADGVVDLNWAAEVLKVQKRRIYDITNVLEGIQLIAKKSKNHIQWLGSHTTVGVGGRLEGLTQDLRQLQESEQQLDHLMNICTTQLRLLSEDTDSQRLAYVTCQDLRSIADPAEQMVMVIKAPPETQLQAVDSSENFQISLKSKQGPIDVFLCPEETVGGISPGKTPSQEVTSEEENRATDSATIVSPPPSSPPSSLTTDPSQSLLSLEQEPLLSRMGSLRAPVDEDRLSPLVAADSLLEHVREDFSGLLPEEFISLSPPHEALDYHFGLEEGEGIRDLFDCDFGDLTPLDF", "assay": "GST ELISA, Rb-E2F1 binding", "conditions": "20 μM", "text": "In vitro library screening assays. […] Absorbance was read at 490 nanometers (nm)."}, "[3]": {"molecular_target": "binding of Raf-1 to GST Rb beads (Homo sapiens, UniProt P04049+P06400)", "sequence (P06400 whole entry)": "as the sequence (P06400 whole entry) above", "sequence (P04049 whole entry)": "as the sequence (P04049 whole entry) above", "assay": "GST pull-down, U937 lysates", "conditions": "20 μM, asynchronous U937 lysates, western blotting", "experimental": "First, 200 micrograms (μg) of U937 asynchronous lysates were pre-incubated with 10 μM of the indicated drugs or 1 μM of the Raf-1 peptide for 30 minutes at 4° C. Next, 200 μg of the U937 lysates were incubated with glutathione beads carrying an equal amount of the GST fusion proteins in 2001 of protein binding buffer (20 mM Tris [pH 7.5], 50 mM KCL, 0.5 mM EDTA, 1 mM dithiothreitol, 0.5% NP-40, 3 mg of bovine serum albumin/mL) at 4° C. for 2 h.\nAsynchronous U937 lysates were incubated with GST-Rb beads in the presence or absence of the selected compounds or an 8 amino acid Raf-1 peptide and the binding of Raf-1 assessed by western blotting."}, "Rb:Raf-1 binding": {"molecular_target": "T2, Rb:Raf-1 binding (Homo sapiens, UniProt P04049+P06400)", "T2 construct": "a glutathione S-transferase (GST) Raf-1 (1-149aa) overnight at 4° C; made in house", "T2 sequence (P04049 1-149 limits assumed)": "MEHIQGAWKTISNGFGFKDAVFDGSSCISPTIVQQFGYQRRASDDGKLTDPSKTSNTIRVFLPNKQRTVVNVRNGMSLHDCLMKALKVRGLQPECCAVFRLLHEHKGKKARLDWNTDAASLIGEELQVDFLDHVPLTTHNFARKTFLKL", "T2 sequence (P06400 whole entry)": "as the sequence (P06400 whole entry) above", "assay": "GST-Rb/GST-Raf-1 ELISA", "protocol": "In vitro library screening assays. Enzyme Linked ImmunoSorbent Assay (ELISA) 96-well plates were coated with 1 μg/mL of a glutathione S-transferase (GST) Raf-1 (1-149aa) overnight at 4° C. Subsequently the plates were blocked and GST Rb at 20 μg/mL was rotated at room temperature (RT) for 30 minutes in the presence or absence of the compounds at 20 micromolar (μM). GST-Rb +/− compounds were then added to the plate and incubated for 90 minutes (min) at 37° C. The amount of Rb bound to Raf-1 was detected by Rb polyclonal antibody (Santa Cruz Biotechnology, Santa Cruz, Calif.) 1:1000 incubated for 60 min at 37° C. Donkey-anti-rabbit-IgG-HRP (1:10,000) was added to the plate and incubated at 37° C. for 60 minutes. The color was developed with orthophenylenediamine (Sigma, St. Louis, Mo.) and the reaction was terminated with 3 molar (M) H2SO4. Absorbance was read at 490 nanometers (nm). To determine disruption of Rb to E2F1, Phb, or HDAC1 the above protocol was used with the exception of coating GST Rb on the ELISA plate and adding the drugs in the presence or absence of GST E2F1, Phb, or HDAC1. […] Prohibitin monoclonal antibody was used at 1:1000 to detect the amount of Rb bound to Prohibitin. For disruption of MEK-Raf-1 binding ELISAs, Raf-1 1 microgram/milliliter (μg/mL) was coated on the plate and GST-MEK (20 μg/mL) was incubated +/− the compounds for 30 minutes at room temperature. Mek1 polyclonal antibody was used at 1:1000 to detect the binding of Raf-1 to Mek1. The IC50 concentrations for the Rb:Raf-1 inhibitors were determined by plotting with Origin 7.5 software (Origin, Northampton, Mass.).\nA screen was developed to identify small molecule inhibitors of the Rb:Raf-1 interaction. A diversity set, comprising 1981 compounds (National Cancer Institute, Bethesda, Md.) was examined using a glutathione S-transferase-retinoblastoma/glutathione S-transferase-Raf-1 kinase Enzyme-Linked ImmunoSorbent Assay screen (GST-Rb/GST-Raf-1 ELISA)."}}, "note": "“Also recorded” adds a separate entry of the source.", "data": [{"smiles": "N=C(N)SCc1ccc(Cl)c2ccccc12", "note": "[(2), (4-chloronaphthalen-1-yl)methyl carbamimidothioate]", "values": [{"measurement": "angiogenic tubule formation in matrigel", "setting": "[1]", "result": "inhibit angiogenic tubule formation; also recorded: significantly inhibited the angiogenic tubule formation"}, {"measurement": "binding of Raf-1 to Rb in intact cells", "setting": "[2]", "result": "inhibited the binding of Raf-1 to Rb significantly"}, {"measurement": "inhibition of Rb-E2F1 binding / selectivity in words", "setting": "Rb-E2F1", "result": "selective for inhibiting Rb:Raf-1 and not Rb-E2F1 binding"}, {"measurement": "binding of Raf-1 to GST Rb beads", "setting": "[3]", "result": "inhibited the binding of GST Rb beads to endogenous Raf-1"}, {"measurement": "IC50", "setting": "Rb:Raf-1 binding; IC50 (nM), inhibition of the Rb:Raf-1 binding, concentration that inhibits the Rb:Raf-1 binding by 50%, triplicate", "result": "283 ± 46", "unit": "nM"}, {"measurement": "inhibition at 20 µM", "setting": "Rb:Raf-1 binding; read-out: % Inhibition at 20 μM, inhibition of Rb:Raf-1 binding, compound at 20 μM", "result": 95, "unit": "%"}]}]}
